This note sets out measurements from publication PMC2748256 (ACS chemical biology, 2009).

pIC50: −log10 of the molar value.

The target of this assay is DM2 (RNA7)-MBNL-1 complex. In kind it is biochemical. Conditions: ligand added to well containing immobilized RNA7, then MBNL-1.

With `C#CCCCC(=O)NC[C@@H]1O[C@@H](O[C@H]2[C@H](O)[C@@H](O[C@@H]3O[C@@H](CO)[C@H](O)[C@@H](N)[C@@H]3O)[C@H](N)C[C@@H]2N)[C@@H](O)[C@H](O)[C@H]1O` [Compound 1, 6′-N-5-hexynoate kanamycin A], the negative logarithm of the IC50 (pIC50) (as a rule, −log10 of the IC50, conventionally taken in molar units) was 3.66.
